Experimental data published in ChEMBL document CHEMBL4411297, “Discovery, synthesis and anti-atherosclerotic activities of a novel selective sphingomyelin synthase 2 inhibitor” (Eur J Med Chem, 2019).
Activity calls are given as the source filed them. No cut-off for these calls is given here.

Legend:
[1] = molecular target: T1, Phosphatidylcholine:ceramide cholinephosphotransferase 2 (Homo sapiens, UniProt Q8NHU3); assay: Inhibition of SMS2 (unknown origin) over-expressed in H5 insect cell lysate using C6-NBD-Ceramide and DMPC as substrates preincubated for 30 mins followed by substrate addition and measured after 2 hrs by TLC or HPLC method; type: subcellular
T1 sequence (Q8NHU3 whole entry): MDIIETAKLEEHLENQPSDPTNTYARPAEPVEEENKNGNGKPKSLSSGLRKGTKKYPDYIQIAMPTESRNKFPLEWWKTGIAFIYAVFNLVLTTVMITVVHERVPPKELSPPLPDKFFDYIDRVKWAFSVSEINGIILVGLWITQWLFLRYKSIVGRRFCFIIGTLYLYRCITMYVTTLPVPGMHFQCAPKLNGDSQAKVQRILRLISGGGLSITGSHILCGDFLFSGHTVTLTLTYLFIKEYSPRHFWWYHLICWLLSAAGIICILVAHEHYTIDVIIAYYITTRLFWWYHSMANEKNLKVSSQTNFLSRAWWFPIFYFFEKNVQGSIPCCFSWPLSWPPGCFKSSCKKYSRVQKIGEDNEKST

[2] = Inhibition of SMS (unknown origin); parameters: species or system Homo sapiens
[3] = molecular target: T2, Phosphatidylcholine:ceramide cholinephosphotransferase 2 (Homo sapiens) (UniProt Q8NHU3); assay: Inhibition of SMS2 (unknown origin) over-expressed in H5 insect cell lysate at 100 uM using C6-NBD-Ceramide and DMPC as substrates preincubated for 30 mins followed by substrate addition and measured after 2 hrs by TLC or HPLC method relative to control; type: subcellular
T2 sequence (whole entry): T1 sequence (Q8NHU3 whole entry)

Structure (SMILES)	IC50 [1]	IC50 [2]	inhibition [3]
COc1ccc(Cl)cc1COc1ccccc1C(=O)Nc1cccnc1	0.67 µM	–	–
S=C(S)O[C@@H]1C[C@H]2C[C@@H]1[C@H]1CCC[C@@H]21	–	177 to 600 µM	–
COc1ccc(OC)c(COc2ccccc2C(=O)Nc2cccnc2)c1	2.8 µM	–	–
N#Cc1ccccc1COc1ccccc1C(=O)Nc1cccnc1	31.8 µM	–	–
N#CC(Nc1ccccc1)c1ccccc1OCc1ccccc1 (configuration not stated)	–	–	75%
Cc1ccc(F)cc1COc1ccccc1C(=O)Nc1cccnc1	0.74 µM	–	–
O=C(NCc1ccco1)c1ccccc1OCc1ccccc1	49 µM	–	–
Cc1ccc(Cl)cc1COc1ccccc1C(=O)Nc1cccnc1	1.1 µM	–	–
O=C(NC1CCCCC1)c1ccccc1OCc1ccccc1	43.4 µM	–	–
Cc1c(Cl)cccc1COc1ccccc1C(=O)Nc1cccnc1	3.8 µM	–	–
O=C(Nc1cccnc1)c1ccccc1OCc1ccccc1	3.2 µM	–	–
c1ccc(COc2ccccc2C(Nc2ccccc2)c2nnn[nH]2)cc1 (configuration not stated)	–	–	inactive
O=C(Nc1cccnc1)c1ccccc1OCc1c(Cl)cccc1Cl	0.69 µM	–	–
O=C(Nc1cccnc1)c1ccccc1OCc1ccccc1OCCCCCCl	0.67 µM	–	–
O=C(Nc1cccnc1)c1ccccc1OCc1ccccc1Cl	1.1 µM	–	–
NC(=O)C(Nc1ccccc1)c1ccccc1OCc1ccccc1 (configuration not stated)	–	–	39%
O=C(Nc1cccnc1)c1ccccc1OCc1ccccc1OCCCCCCCl	0.47 µM	–	–
O=C(NCc1ccccc1)c1ccccc1OCc1ccccc1	34.2 µM	–	–
O=C(Nc1cccnc1)c1ccccc1OCc1ccccc1OCCCCCl	1.3 µM	–	–
CCCCCCCOc1ccc(Cl)cc1COc1ccccc1C(=O)Nc1cccnc1	0.43 µM	–	–
Cc1cccc(C)c1COc1ccccc1C(=O)Nc1cccnc1	0.89 µM	–	–
O=C(Nc1ccccc1)c1ccccc1OCc1ccccc1	13.4 µM	–	69%
N#Cc1cccc(COc2ccccc2C(=O)Nc2cccnc2)c1	60.7 µM	–	–
CC(C#N)(Nc1ccccc1)c1ccccc1OCc1ccccc1 (configuration not stated)	34 µM	–	58%
O=C(Nc1cccnc1)c1ccccc1OCc1ccccc1C(F)(F)F	2.1 µM	–	–
O=C(Nc1cccnc1)c1ccccc1OCc1cc(F)ccc1Cl	0.74 µM	–	–
c1ccc(COc2ccccc2CNc2ccccc2)cc1	–	–	inactive
O=C(NC1CCCNC1)c1ccccc1OCc1ccccc1Cl (configuration not stated)	> 100 µM	–	–
CCCCCCOc1ccc(Cl)cc1COc1ccccc1C(=O)Nc1cccnc1	0.52 µM	–	–
O=C(Nc1cccnc1)c1ccccc1OCc1cc(Cl)ccc1Cl	0.99 µM	–	–
